The target in series [1] is Aurora kinase A (Homo sapiens, UniProt O14965). Put plainly: Binding affinity to wild-type human partial length AURKA (E122 to K401 residues) expressed in mammalian expression system by Kinomescan method.
Series [2] can be described thus: Volume of distribution at steady state in Spargue-Dawley rat at 5 mg/kg, po. Particulars: in vivo; call rule not given here. The format is ADME, organism-based.
Series [3] addresses Cytochrome P450 2C9 (Homo sapiens, UniProt P11712). Put plainly: Inhibition of CYP2C9 in human liver microsomes at 10 to 50 uM. Particulars: dose 10-50 µM. The format is ADME.
Series [4] is described as follows: Protein binding in monkey plasma assessed as unbound fraction. The format is ADME, cell-free, Macaca mulatta. Particulars: rhesus monkey.
The nature of series [5]: Drugmetabolism in human hepatocytes assessed as metabolite formation. The class given is ADME, cell-based, Hepatocyte.
A short description of series [6]: Lipophilicity, logD of the compound at pH 7.6 by shake flask assay. To be noted: buffer. The class given is physicochemical.
The test system of series [7] is Liver. Briefly: Drugmetabolism in human liver microsomes assessed as metabolite formation. The class given is ADME, Microsome.
Series [8] addresses Sodium channel protein type 5 subunit alpha (Homo sapiens, UniProt Q14524). Briefly: Inhibition of tonic human Nav1.5. The format is toxicity.
The nature of series [9]: Clearance in cynomolgus monkey assessed as hepatic blood flow at 1 mg/kg, iv. Particulars: in vivo. The format is ADME, organism-based, Macaca fascicularis, Liver.
Series [10] can be described thus: In vivo toxicity in Sprague-Dawley rat assessed as compound related toxicity at 500 mg/kg after 28 days. Particulars: 672 h, time 28 day. The format is organism-based.
Series [11] addresses Phosphatidylinositol 4-phosphate 5-kinase type-1 gamma (Homo sapiens, UniProt O60331). Briefly: Binding affinity to wild-type human partial length PIP5K1C (M1 to T668 residues) expressed in mammalian expression system by Kinomescan method.
Series [12] concerns the target Voltage-dependent L-type calcium channel subunit alpha-1C (Homo sapiens, UniProt Q13936). Put plainly: Inhibition of human Cav1.2. The format is toxicity.
Series [13] in a line: Protein binding in rat plasma assessed as unbound fraction. The class given is ADME, cell-free.
A short description of series [14]: Hepatotoxicity in rat primary cells assessed as change in ATP level for 10 days. The format is toxicity, cell-based, Hepatocyte. To be noted: hepatocytes, 240 h, time 10 day.
Series [15] is described as follows: In vivo toxicity in Sprague-Dawley rat assessed as NOAEL after 28 days. The class given is organism-based. Particulars: time 28 day.
Series [16] is described as follows: In vivo inhibition of BTK-dependent B cell activation in C57BL/6 mouse immunized with NP-Ficoll assessed as reduction in anti-NP IgM antibody titer at 1 mg/kg, po BID dosed for 10 days. The class given is functional. Set-up: scale not given: the % may be the effect or the level left. Particulars: time 10 day.
Series [17] can be described thus: Apparent permeability across apical to basolateral side in human Caco2 cells. The class given is ADME, cell-based. To be noted: Caco-2. Background: Caco-2 monolayers are a common model of the intestinal barrier.
The target in series [18] is Dual specificity mitogen-activated protein kinase kinase 2 (Homo sapiens, UniProt P36507). Put plainly: Binding affinity to wild-type human full length MEK2 (M1 to V400 residues) expressed in mammalian expression system by Kinomescan method.
Sequence of Dual specificity mitogen-activated protein kinase kinase 2 (P36507 whole entry, the tested form may be a part): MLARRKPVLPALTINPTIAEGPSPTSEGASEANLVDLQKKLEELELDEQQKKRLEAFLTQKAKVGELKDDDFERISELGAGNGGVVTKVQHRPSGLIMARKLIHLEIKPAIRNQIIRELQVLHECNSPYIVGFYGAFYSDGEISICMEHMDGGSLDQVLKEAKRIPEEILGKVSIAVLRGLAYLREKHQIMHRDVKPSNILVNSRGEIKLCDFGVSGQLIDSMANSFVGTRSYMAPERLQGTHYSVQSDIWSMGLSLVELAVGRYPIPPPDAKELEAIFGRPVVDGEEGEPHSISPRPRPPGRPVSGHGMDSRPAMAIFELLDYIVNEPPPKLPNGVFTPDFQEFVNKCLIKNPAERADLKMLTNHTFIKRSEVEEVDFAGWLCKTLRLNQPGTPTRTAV

Sequence of Phosphatidylinositol 4-phosphate 5-kinase type-1 gamma (O60331 whole entry, the tested form may be a part): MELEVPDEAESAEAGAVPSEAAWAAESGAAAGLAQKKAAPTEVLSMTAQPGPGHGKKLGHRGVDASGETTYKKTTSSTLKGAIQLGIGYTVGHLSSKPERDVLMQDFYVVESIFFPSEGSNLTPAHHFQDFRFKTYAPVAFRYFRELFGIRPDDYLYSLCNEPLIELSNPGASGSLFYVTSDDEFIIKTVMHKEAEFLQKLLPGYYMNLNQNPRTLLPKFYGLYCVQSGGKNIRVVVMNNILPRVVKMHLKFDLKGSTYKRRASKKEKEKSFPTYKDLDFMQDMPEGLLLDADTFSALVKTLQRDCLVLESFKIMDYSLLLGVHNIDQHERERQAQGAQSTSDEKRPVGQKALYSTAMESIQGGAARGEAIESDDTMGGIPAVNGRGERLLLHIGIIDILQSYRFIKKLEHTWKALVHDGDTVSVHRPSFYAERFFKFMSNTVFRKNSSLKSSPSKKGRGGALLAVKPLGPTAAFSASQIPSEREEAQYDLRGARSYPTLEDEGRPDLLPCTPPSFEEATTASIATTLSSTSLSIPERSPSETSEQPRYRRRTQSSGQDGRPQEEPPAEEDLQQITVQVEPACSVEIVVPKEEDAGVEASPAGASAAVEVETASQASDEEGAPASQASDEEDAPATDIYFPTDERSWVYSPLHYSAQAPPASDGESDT
Sequence of Aurora kinase A (O14965 whole entry, the tested form may be a part): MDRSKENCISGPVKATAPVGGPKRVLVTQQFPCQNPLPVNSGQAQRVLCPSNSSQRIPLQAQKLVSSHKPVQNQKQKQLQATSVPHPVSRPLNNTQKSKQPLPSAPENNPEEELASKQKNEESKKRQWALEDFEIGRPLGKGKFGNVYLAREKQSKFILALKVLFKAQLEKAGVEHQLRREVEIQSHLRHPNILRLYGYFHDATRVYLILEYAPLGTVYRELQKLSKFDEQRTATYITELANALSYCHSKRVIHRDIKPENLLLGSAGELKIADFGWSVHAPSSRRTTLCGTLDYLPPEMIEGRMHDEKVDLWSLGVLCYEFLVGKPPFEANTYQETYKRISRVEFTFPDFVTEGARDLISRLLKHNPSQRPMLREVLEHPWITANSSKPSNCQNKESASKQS
Sequence of Cytochrome P450 2C9 (P11712 whole entry): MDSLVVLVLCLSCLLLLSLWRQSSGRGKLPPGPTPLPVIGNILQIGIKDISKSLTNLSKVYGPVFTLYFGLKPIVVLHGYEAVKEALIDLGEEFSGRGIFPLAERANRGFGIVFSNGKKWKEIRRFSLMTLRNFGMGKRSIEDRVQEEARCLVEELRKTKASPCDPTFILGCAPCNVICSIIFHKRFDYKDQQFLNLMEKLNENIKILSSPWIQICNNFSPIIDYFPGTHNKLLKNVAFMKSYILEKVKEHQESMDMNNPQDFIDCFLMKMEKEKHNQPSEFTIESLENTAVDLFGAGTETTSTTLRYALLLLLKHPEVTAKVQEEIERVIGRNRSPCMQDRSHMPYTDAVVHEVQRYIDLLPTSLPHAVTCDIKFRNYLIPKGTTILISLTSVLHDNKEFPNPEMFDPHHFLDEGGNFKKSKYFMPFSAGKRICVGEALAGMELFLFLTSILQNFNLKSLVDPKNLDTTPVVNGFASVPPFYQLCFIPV
Sequence of Sodium channel protein type 5 subunit alpha (Q14524 whole entry): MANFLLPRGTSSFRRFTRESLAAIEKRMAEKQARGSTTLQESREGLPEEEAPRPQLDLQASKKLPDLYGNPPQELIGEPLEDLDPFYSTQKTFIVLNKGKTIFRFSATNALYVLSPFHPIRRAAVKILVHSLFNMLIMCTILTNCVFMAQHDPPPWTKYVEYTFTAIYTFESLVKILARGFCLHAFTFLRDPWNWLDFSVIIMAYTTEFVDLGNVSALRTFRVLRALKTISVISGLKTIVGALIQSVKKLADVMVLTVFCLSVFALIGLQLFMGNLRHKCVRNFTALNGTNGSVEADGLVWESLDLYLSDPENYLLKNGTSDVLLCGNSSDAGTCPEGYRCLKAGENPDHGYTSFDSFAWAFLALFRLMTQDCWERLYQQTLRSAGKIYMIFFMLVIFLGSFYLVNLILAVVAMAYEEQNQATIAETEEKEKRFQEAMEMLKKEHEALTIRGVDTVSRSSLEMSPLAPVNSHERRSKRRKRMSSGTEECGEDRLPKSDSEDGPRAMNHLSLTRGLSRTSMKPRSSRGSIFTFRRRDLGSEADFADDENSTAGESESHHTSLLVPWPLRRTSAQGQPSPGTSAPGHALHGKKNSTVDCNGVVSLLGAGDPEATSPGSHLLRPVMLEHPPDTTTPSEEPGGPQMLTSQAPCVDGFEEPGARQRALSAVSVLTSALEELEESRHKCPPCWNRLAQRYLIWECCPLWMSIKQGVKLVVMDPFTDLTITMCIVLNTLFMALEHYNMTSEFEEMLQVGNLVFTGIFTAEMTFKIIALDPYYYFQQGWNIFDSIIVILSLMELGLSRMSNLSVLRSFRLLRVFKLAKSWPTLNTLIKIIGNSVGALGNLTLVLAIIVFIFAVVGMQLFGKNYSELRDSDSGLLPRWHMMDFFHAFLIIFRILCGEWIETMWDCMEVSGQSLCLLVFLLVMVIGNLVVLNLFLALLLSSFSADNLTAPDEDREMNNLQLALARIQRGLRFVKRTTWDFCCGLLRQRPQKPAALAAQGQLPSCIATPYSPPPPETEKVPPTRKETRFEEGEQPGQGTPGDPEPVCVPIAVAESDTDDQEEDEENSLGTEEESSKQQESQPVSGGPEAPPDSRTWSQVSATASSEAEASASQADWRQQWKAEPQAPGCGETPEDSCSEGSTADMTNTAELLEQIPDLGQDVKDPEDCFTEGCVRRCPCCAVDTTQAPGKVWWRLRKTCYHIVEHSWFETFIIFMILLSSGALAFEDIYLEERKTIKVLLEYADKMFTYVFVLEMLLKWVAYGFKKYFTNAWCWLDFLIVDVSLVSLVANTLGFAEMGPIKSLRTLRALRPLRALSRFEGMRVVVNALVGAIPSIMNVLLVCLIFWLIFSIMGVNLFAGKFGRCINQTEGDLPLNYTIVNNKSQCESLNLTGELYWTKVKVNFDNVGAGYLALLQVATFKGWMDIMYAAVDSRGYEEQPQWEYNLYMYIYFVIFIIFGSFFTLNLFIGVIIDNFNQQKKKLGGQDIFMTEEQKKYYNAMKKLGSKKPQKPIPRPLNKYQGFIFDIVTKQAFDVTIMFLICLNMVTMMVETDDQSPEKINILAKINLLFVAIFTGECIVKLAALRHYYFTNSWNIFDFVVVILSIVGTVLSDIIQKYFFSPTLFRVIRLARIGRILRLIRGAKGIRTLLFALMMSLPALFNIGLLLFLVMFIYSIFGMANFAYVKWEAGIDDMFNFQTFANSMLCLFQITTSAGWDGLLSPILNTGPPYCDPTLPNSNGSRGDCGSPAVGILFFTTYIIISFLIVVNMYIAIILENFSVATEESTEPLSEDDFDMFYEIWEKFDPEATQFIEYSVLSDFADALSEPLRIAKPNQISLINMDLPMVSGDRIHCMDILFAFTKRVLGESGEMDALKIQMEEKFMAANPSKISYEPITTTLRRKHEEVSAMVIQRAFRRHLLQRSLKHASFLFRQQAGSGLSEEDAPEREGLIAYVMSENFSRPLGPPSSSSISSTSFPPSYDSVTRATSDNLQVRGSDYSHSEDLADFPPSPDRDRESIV

As to `Cn1cc(Nc2nccc(-c3ccc4c(c3)CN(C3COC3)CC[C@H]4NC(=O)c3cn(C(C)(C)C)nn3)n2)cn1` [BIIB-091], the Kd in series [1] is 660 nM; in series [11], 420 nM; in series [18], 200 nM. Moreover, in series [2], the Vdss was 0.4 L/kg. Besides, the “inhibition (INH)” value in series [3] is on record as “Not Active”. Moreover, the results for the fraction unbound in series [4] and in [13] were 0.19 and 0.1, respectively. Moreover, the Drug metabolism entry in series [5] and in [7] was “Metabolite_Notdetected” each time. The logD in series [6] was 2.2. Further, the half-maximal inhibitory concentration (IC50) in series [8] and in [12] was > 25000 nM in each case. The QH in series [9] was found to be 44%. For the same compound, the figures for the Activity entry in series [10], in [14] and in series [16] were “Non-Toxic”, “Non-Toxic” and 59%, respectively. The no-observed-adverse-effect level (NOAEL) at 672 h in series [15] stood at 500 mg/kg. Moreover, the Papp A→B in series [17] worked out at 1.78 ×10⁻⁶ cm/s.

Usually Kd stands for the constant that tells how readily two partners part at equilibrium. Usually fraction unbound stands for the share of the substance not bound to proteins or other matrix. Usually logD stands for lipophilicity at a set pH, counting ionised and neutral species. In general, IC50 refers to the concentration that gives 50% inhibition. The term NOAEL denotes the highest tested level that showed no adverse finding. Broadly, the Papp A→B is how fast a substance crosses the layer from the apical side.

Values taken from ChEMBL document CHEMBL5042486, “Discovery and Preclinical Characterization of BIIB091, a Reversible, Selective BTK Inhibitor for the Treatment of Multiple Sclerosis” (J Med Chem, 2022).
